Two compounds from patent publication US9044397B2, “Medical devices with galvanic particulates” (Ethicon, Inc., priority 2009, dated 2015) can be followed below.

What all share (format): cell-based
For experiment [1], the system named is C. albicans. Put plainly: Zone of inhibition on TSA agar versus copper acetate and zinc acetate. The note with it: about 6 log CFU, 37° C. 24 hr. As to the method: (§1) Zone of inhibition testing was performed on agar discs containing copper-zinc galvanic particulates from Example 1(a) at 0.5%, Zn acetate at 0.5%, and Cu acetate at 0.1%. The discs were placed on TSA agar surface, inoculated with about 6 log CFU of MRSA or C. albicans, and incubated at 37° C. for 24 hr.

Experiment [2] concerns MRSA. The experiment is described as above. The note with it: about 6 log CFU, 37° C. 24 hr. The procedure: as §1
Experiment [3] concerns C. albicans. Put plainly: Sustained efficacy, zone of inhibition day 1 and re-plated day 2. The note with it: 1% in agar disc. As to the method: (§2) Agars discs containing either galvanic particulates as described in Example 1(a) or zinc acetate at 1% were placed on TSA agar surface inoculated with about 6 log CFU of MRSA or C. albicans and incubated at 37° C. for 24 hr (day-1).

For experiment [4], the system named is MRSA. Described as above. The note with it: 1% in agar disc. As to the method: as §2
The mark [5] stands for this setting: same disc moved to newly inoculated plate, day-2.

`CC(=O)[O-].CC(=O)[O-].[Zn+2]` [Zinc Acetate, zinc acetate]: the “zone of inhibition, C. albicans” value in experiment [1] (0.5% in agar disc) is “smaller zone of inhibition, approximately one half the radius”. For the same compound, the “zone of inhibition, MRSA” value in experiment [2] (0.5% in agar disc) is on record as “smaller zone of inhibition, approximately one half the radius”. Moreover, the “zone of inhibition, C. albicans, day 1” value in experiment [3] (day-1, 24 hr at 37° C.) is “produce a zone of inhibition”. The “zone of inhibition, C. albicans, day 2” value in experiment [3] (setting [5]) is “did not show any inhibition”. Besides, the “zone of inhibition, MRSA, day 1” value in experiment [4] (day-1, 24 hr at 37° C.) is on record as “produce a zone of inhibition”. The “zone of inhibition, MRSA, day 2” value in experiment [4] (setting [5]) is recorded as “did not show any inhibition”.

With copper acetate, the “zone of inhibition, C. albicans” value in experiment [1] (0.1% in agar disc) is listed as “did not show any visible zone of inhibition”. In experiment [2] (0.1% in agar disc), the “zone of inhibition, MRSA” value is “did not show any visible zone of inhibition”.
